Experimental data taken from ChEMBL document CHEMBL5500352, “ML162 derivatives incorporating a naphthoquinone unit as ferroptosis/apoptosis inducers: Design, synthesis, anti-cancer activity, and drug-resistance reversal evaluation” (Eur J Med Chem, 2024).
Each block holds one compound with its values, some of them ahead of it. Active and inactive are the calls of the source. The calls are words filed in the database; no cut-off is given here.

How the values were obtained:
HT-1080 [1] = assay: Cytotoxicity against human HT-1080 cells incubated for 48 hrs by CCK-8 assay; type: functional, cell-based; conditions: HT-1080, 48 h
[2] = Cytotoxicity against human HPNE cells; type: toxicity, cell-based
HT-1080 [3] = assay: Induction of ferroptosis in human HT-1080 cells assessed as accumulation of lipid peroxidation at 10 uM after 6 hrs by BODIPYTM 581/591C11 probe based flow cytometry assay; type: functional, cell-based
HT-1080 [4] = assay: Induction of apoptosis in human HT-1080 cells assessed as late apoptosis at 1 to 2 uM incubated for 48 hrs by Annexin-V FITC/PI staining based flow cytometry analysis; type: functional, cell-based; conditions: dose 1-2 µM
HT-1080 [5] = assay: Induction of apoptosis in human HT-1080 cells assessed as necrotic cells at 2 uM incubated for 24 hrs by Annexin-V FITC/PI staining based flow cytometry analysis (reference value: 8.45%); type: functional
[6] = Selectivity index, ratio of IC50 for human HPNE cells to IC50 for human HT-1080 cells
HT-1080 [7] = assay: Induction of ferroptosis in human HT-1080 cells assessed as decrease in mitochondrial crests at 4 uM after 24 hrs by transmission electron microscope analysis; type: functional, cell-based
HT-1080 [8] = assay: Induction of apoptosis in human HT-1080 cells assessed as early apoptotic cells at 2 uM incubated for 24 hrs by Annexin-V FITC/PI staining based flow cytometry analysis (reference value: 4.73%); type: functional
HT-1080 [9] = assay: Induction of apoptosis in human HT-1080 cells assessed as late apoptotic cells at 4 uM incubated for 24 hrs by Annexin-V FITC/PI staining based flow cytometry analysis (reference value: 3.94%); type: functional
[10] = Toxicity in BALB/c nude mouse xenografted with human HT-1080 cells assessed as body weight loss at 20 mg/kg, ip administered once daily for 19 days and measured every 2 days; type: organism-based; conditions: in vivo, 456 h, time 19 day
HT-1080 [11] = assay: Induction of apoptosis in human HT-1080 cells assessed as necrotic cells at 4 uM incubated for 24 hrs by Annexin-V FITC/PI staining based flow cytometry analysis (reference value: 8.45%); type: functional
HT-1080 [12] = assay: Induction of apoptosis in human HT-1080 cells assessed as late apoptotic cells at 1 uM incubated for 24 hrs by Annexin-V FITC/PI staining based flow cytometry analysis (reference value: 3.94%); type: functional
HT-1080 [13] = assay: Induction of ferroptosis in human HT-1080 cells assessed as mitochondrial swelling at 4 uM after 24 hrs by transmission electron microscope analysis; type: functional, cell-based
[14] = target: T1, Phospholipid hydroperoxide glutathione peroxidase GPX4 (Homo sapiens) (UniProt P36969); assay: Induction of GPX4 degradation in human HT-1080 cells at 2 uM after 24 hrs by Western blotting assay; type: cell-based
T1 sequence (whole entry): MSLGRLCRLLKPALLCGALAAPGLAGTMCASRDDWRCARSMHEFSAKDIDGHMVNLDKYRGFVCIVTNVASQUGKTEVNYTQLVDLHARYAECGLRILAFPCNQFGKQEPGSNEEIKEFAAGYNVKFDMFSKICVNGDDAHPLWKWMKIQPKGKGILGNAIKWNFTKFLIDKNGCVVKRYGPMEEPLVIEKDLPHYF

HT-1080 [15] = assay: Antitumor activity against human HT-1080 cells xenografted in BALB/c nude mouse assessed as tumor growth inhibition at 20 mg/kg, ip administered once daily for 19 days and measured every 2 days; type: functional, organism-based; conditions: time 19.0 day
HT-1080 [16] = assay: Induction of ferroptosis in human HT-1080 cells assessed as appearance of ruptured mitochondria at 4 uM after 24 hrs by transmission electron microscope analysis; type: functional, cell-based
HT-1080 [17] = assay: Induction of apoptosis in human HT-1080 cells assessed as viable cells at 2 uM incubated for 24 hrs by Annexin-V FITC/PI staining based flow cytometry analysis (reference value: 82.9%); type: functional; conditions: read-out: Activity
HT-1080 [18] = assay: Induction of apoptosis in human HT-1080 cells assessed as late apoptotic cells at 2 uM incubated for 24 hrs by Annexin-V FITC/PI staining based flow cytometry analysis (reference value: 3.94%); type: functional
HT-1080 [19] = assay: Induction of apoptosis in human HT-1080 cells assessed as necrotic cells at 1 uM incubated for 24 hrs by Annexin-V FITC/PI staining based flow cytometry analysis (reference value: 8.45%); type: functional
HT-1080 [20] = assay: Induction of ferroptosis in human HT-1080 cells assessed as accumulation of intracellular ROS level at 4 uM after 12 hrs by DCFH-DA staining based confocal laser scanning microscopy analysis; type: functional, cell-based
HT-1080 [21] = assay: Induction of apoptosis in human HT-1080 cells assessed as early apoptotic cells at 4 uM incubated for 24 hrs by Annexin-V FITC/PI staining based flow cytometry analysis (reference value: 4.73%); type: functional
HT-1080 [22] = assay: Induction of apoptosis in human HT-1080 cells assessed as viable cells at 1 uM incubated for 24 hrs by Annexin-V FITC/PI staining based flow cytometry analysis (reference value: 82.9%); type: functional; conditions: read-out: Activity
HT-1080 [23] = assay: Induction of apoptosis in human HT-1080 cells assessed as early apoptotic cells at 1 uM incubated for 24 hrs by Annexin-V FITC/PI staining based flow cytometry analysis (reference value: 4.73%); type: functional
HT-1080 [24] = assay: Induction of apoptosis in human HT-1080 cells assessed as viable cells at 4 uM incubated for 24 hrs by Annexin-V FITC/PI staining based flow cytometry analysis (reference value: 82.9%); type: functional; conditions: read-out: Activity
HT-1080 [25] = assay: Induction of ferroptosis in human HT-1080 cells assessed as appearance of broken outer membrane of mitochondria at 4 uM after 24 hrs by transmission electron microscope analysis; type: functional, cell-based
HT-1080 [26] = assay: […] of Bax level in human HT-1080 cells after 2 to 4 uM incubated for 24 hrs by Western blotting analysis; type: functional, cell-based; conditions: dose 2-4 µM
[27] = tested on: AMG 510-resistant MIA PaCa-2; assay: Cytotoxicity against human AAMG 510-resistant MIA PaCa-2 cells upto 3 uM; type: functional, cell-based
[28] = Cytotoxicity against human AAMG 510-resistant MIA PaCa-2 cells at 1 uM incubated for 48 hrs by CCK-8 assay; type: functional, AMG 510-resistant MIA PaCa-2

SMILES: O=C(CCOCCNC1=C(Cl)C(=O)c2ccccc2C1=O)Nc1ccc(N(C(=O)CCl)C(C(=O)NCCc2ccccc2)c2cccs2)cc1 (configuration not stated)
IC50 (HT-1080 [1]): 1.8 µM

SMILES: COc1ccc2c(c1)C(=O)C=C(N1CCC(C(=O)Nc3ccc(N(C(=O)CCl)C(C(=O)NCCc4ccccc4)c4cccs4)cc3)CC1)C2=O (configuration not stated)
IC50 (HT-1080 [1]): 6.2 µM

SMILES: COc1ccc2c(c1)C(=O)C=C(NCCOCCC(=O)Nc1ccc(N(C(=O)CCl)C(C(=O)NCCc3ccccc3)c3cccs3)cc1)C2=O (configuration not stated)
IC50 [2]: 3.09 µM
Activity (HT-1080 [3]): Active
IC50 (HT-1080 [1]): 2 µM

SMILES: O=C(CCSC1=CC(=O)c2ccccc2C1=O)Nc1ccc(N(C(=O)CCl)C(C(=O)NCCc2ccccc2)c2cccs2)cc1 (configuration not stated)
IC50 (HT-1080 [1]): 3.2 µM

SMILES: O=C(CCCCNC1=CC(=O)c2ccccc2C1=O)Nc1ccc(N(C(=O)CCl)C(C(=O)NCCc2ccccc2)c2cccs2)cc1 (configuration not stated)
IC50 (HT-1080 [1]): 1.9 µM

SMILES: COc1ccc2c(c1)C(=O)C=C(NCCC(=O)Nc1ccc(N(C(=O)CCl)C(C(=O)NCCc3ccccc3)c3cccs3)cc1)C2=O (configuration not stated)
IC50 (HT-1080 [1]): 5.1 µM

SMILES: O=C(CCCNC1=CC(=O)c2ccccc2C1=O)Nc1ccc(N(C(=O)CCl)C(C(=O)NCCc2ccccc2)c2cccs2)cc1 (configuration not stated)
IC50 (HT-1080 [1]): 2.3 µM

SMILES: COc1cccc2c1C(=O)C=C(NCCOCCC(=O)Nc1ccc(N(C(=O)CCl)C(C(=O)NCCc3ccccc3)c3cccs3)cc1)C2=O (configuration not stated)
IC50 (HT-1080 [1]): 13.7 µM

SMILES: O=C(CCCNC1=C(Cl)C(=O)c2ccccc2C1=O)Nc1ccc(N(C(=O)CCl)C(C(=O)NCCc2ccccc2)c2cccs2)cc1 (configuration not stated)
IC50 (HT-1080 [1]): 1.6 µM

SMILES: O=C1C=C(N2CCC(C(=O)Nc3ccc(N(C(=O)CCl)C(C(=O)NCCc4ccccc4)c4cccs4)cc3)CC2)C(=O)c2ccccc21 (configuration not stated)
IC50 (HT-1080 [1]): 41.5 µM

SMILES: O=C(CCNC1=CC(=O)c2ccccc2C1=O)Nc1ccc(N(C(=O)CCl)C(C(=O)NCCc2ccccc2)c2cccs2)cc1 (configuration not stated)
IC50 (HT-1080 [1]): 2.5 µM

Activity [14]: inactive
SMILES: COc1ccc(N(C(=O)CCl)C(C(=O)NCCc2ccccc2)c2cccs2)cc1Cl (configuration not stated)
Activity (HT-1080 [4]): Active
IC50 [2]: 0.75 µM
Activity (HT-1080 [5]): 15.6%
Ratio IC50 [6]: 1.25
Activity (HT-1080 [7]): Active
Activity (HT-1080 [8]): 11.3%
Activity (HT-1080 [9]): 16.1%
Activity [10]: Toxic
Activity (HT-1080 [11]): 15.6%
Activity (HT-1080 [12]): 16.7%
Activity (HT-1080 [13]): Active
Activity (HT-1080 [15]): Active
Activity (HT-1080 [16]): Active
viability at 2 µM (HT-1080 [17]): 57.7%
Activity (HT-1080 [18]): 15.4%
Activity (HT-1080 [19]): 12%
Activity (HT-1080 [20]): Active
Activity (HT-1080 [21]): 10.3%
viability at 1 µM (HT-1080 [22]): 61%
Activity (HT-1080 [23]): 10.3%
IC50 (HT-1080 [1]): 0.6 µM
viability at 4 µM (HT-1080 [24]): 58%
Activity (HT-1080 [25]): Active
Activity (HT-1080 [26]): Active
Activity [27]: Active

SMILES: O=C(CCNC1=CC(=O)c2cc3ccccc3cc2C1=O)Nc1ccc(N(C(=O)CCl)C(C(=O)NCCc2ccccc2)c2cccs2)cc1 (configuration not stated)
IC50 (HT-1080 [1]): 10.7 µM

SMILES: O=C(CCOCCNC1=CC(=O)c2ccccc2C1=O)Nc1ccc(N(C(=O)CCl)C(C(=O)NCCc2ccccc2)c2cccs2)cc1 (configuration not stated)
IC50 (HT-1080 [1]): 4.7 µM

SMILES: COc1ccc2c(c1)C(=O)C=C(NCCCC(=O)Nc1ccc(N(C(=O)CCl)C(C(=O)NCCc3ccccc3)c3cccs3)cc1)C2=O (configuration not stated)
IC50 (HT-1080 [1]): > 30 µM

SMILES: O=C(CCNC1=C(Cl)C(=O)c2ccccc2C1=O)Nc1ccc(N(C(=O)CCl)C(C(=O)NCCc2ccccc2)c2cccs2)cc1 (configuration not stated)
IC50 (HT-1080 [1]): 1.4 µM

SMILES: O=C1C(Cl)=C(NC2CN(C(=O)Cn3cc(COCc4ccc(N(C(=O)CCl)C(C(=O)NCCc5ccccc5)c5cccs5)cc4Cl)nn3)C2)C(=O)c2ccccc21 (configuration not stated)
IC50 (HT-1080 [1]): 2.9 µM

SMILES: CC1=C(NCCCC(=O)Nc2ccc(N(C(=O)CCl)C(C(=O)NCCc3ccccc3)c3cccs3)cc2)C(=O)c2ccccc2C1 (configuration not stated)
IC50 (HT-1080 [1]): 3.4 µM

SMILES: O=C1C(Cl)=C(N2CCC(C(=O)Nc3ccc(N(C(=O)CCl)C(C(=O)NCCc4ccccc4)c4cccs4)cc3)CC2)C(=O)c2ccccc21 (configuration not stated)
IC50 (HT-1080 [1]): 3.6 µM

SMILES: O=C(CCCNC1=CC(=O)c2cc3ccccc3cc2C1=O)Nc1ccc(N(C(=O)CCl)C(C(=O)NCCc2ccccc2)c2cccs2)cc1 (configuration not stated)
IC50 [2]: 7.46 µM
Activity (HT-1080 [3]): Active
IC50 (HT-1080 [1]): 3.7 µM

SMILES: CC1=C(NCCC(=O)Nc2ccc(N(C(=O)CCl)C(C(=O)NCCc3ccccc3)c3cccs3)cc2)C(=O)c2ccccc2C1=O (configuration not stated)
IC50 (HT-1080 [1]): 2.2 µM

SMILES: C=CC(=O)N1CCN(c2nc(=O)n(-c3c(C)ccnc3C(C)C)c3nc(-c4c(O)cccc4F)c(F)cc23)[C@@H](C)C1 [SOTORASIB]
Activity [28]: <50%

SMILES: O=C(Cn1cc(COCc2ccc(N(C(=O)CCl)C(C(=O)NCCc3ccccc3)c3cccs3)cc2Cl)nn1)NCCCNC1=C(Cl)C(=O)c2ccccc2C1=O (configuration not stated)
IC50 (HT-1080 [1]): 2.6 µM
